From publication PMC13185819, “De Novo Multi‐Mechanism Antimicrobial Peptide Design via Multimodal Deep Learning” (Advanced Science, 2026)
Converted amounts (≈) assume the structure as drawn. Residues, ends and D or L forms follow the SMILES beside them.

Key:
Type in all cases: cell-based
[1] = tested on: E. faecium 1042
Experimental: (§1) Standard strains included S. aureus ATCC33592, S. aureus CICC25138, and Salmonella enterica ATCC14028, which were purchased from the China Center of Industrial Culture Collection (CICC). Standard strains including E.coli CMCC44102, Salmonella enterica CMCC50071, and S. aureus CMCC26003 were purchased from the National Center for Medical Culture Collections (CMCC). […] All experiments using the above strains were carried out in a BSL‐2 laboratory. The clinical laboratory of Qilu Hospital detected bacterial resistance to various antibiotics. All strains were streaked on Nutrient Broth (NB) agar medium and incubated overnight at 37°C.
(§2) The antimicrobial activity of the peptides was examined in sterile 96‐well plates using the broth microdilution according to the CLSI standard. The colonies were suspended in saline solution, the turbidity was adjusted to McFarland 0.5 to reach a bacterial concentration of 10^8 CFU/mL, and again diluted 100 times for the inhibition test. Then, 50 µL of bacterial suspension at 1 × 10^6 CFU/mL was incubated with the same volume of different concentrations of peptide solution [serial twofold dilutions in Mueller–Hinton Broth (Hopebio)]. […] All experiments were performed with three independent replicates.

[2] = tested on: E. faecium 21
Experimental: as §1, §2

[3] = tested on: E.coli 110
Experimental: as §1, §2

[4] = tested on: E.coli 208
Experimental: as §1, §2

[5] = tested on: E.coli CMCC44102
Experimental: as §1, §2

[6] = tested on: K. pneumoniae 7713
Experimental: as §1, §2

[7] = tested on: P. aeruginosa 112
Experimental: as §1, §2

[8] = tested on: P. aeruginosa 116
Experimental: as §1, §2

[9] = tested on: P. aeruginosa 119
Experimental: as §1, §2

[10] = tested on: S. aureus 103
Experimental: as §1, §2

[11] = tested on: S. aureus 129
Experimental: as §1, §2

[12] = tested on: S. aureus ATCC33592
Experimental: as §1, §2

[13] = tested on: S. aureus CICC25138
Experimental: as §1, §2

[14] = tested on: S. aureus CMCC26003
Experimental: as §1, §2

Compound | MIC (μg/mL) E. faecium 1042 [1] [µg/mL] | MIC (μg/mL) E. faecium 21 [2] [µg/mL] | MIC (μg/mL) E.coli 110 [3] [µg/mL] | MIC (μg/mL) E.coli 208 [4] [µg/mL] | MIC (μg/mL) E.coli CMCC44102 [5] [µg/mL] | MIC (μg/mL) K. pneumoniae 7713 [6] [µg/mL] | MIC (μg/mL) P. aeruginosa 112 [7] [µg/mL] | MIC (μg/mL) P. aeruginosa 116 [8] [µg/mL] | MIC (μg/mL) P. aeruginosa 119 [9] [µg/mL] | MIC (μg/mL) S. aureus 103 [10] [µg/mL] | MIC (μg/mL) S. aureus 129 [11] [µg/mL] | MIC (μg/mL) S. aureus ATCC33592 [12] [µg/mL] | MIC (μg/mL) S. aureus CICC25138 [13] [µg/mL] | MIC (μg/mL) S. aureus CMCC26003 [14] [µg/mL]
CC[C@H](C)[C@H](NC(=O)[C@H](CCCNC(=N)N)NC(=O)[C@H](Cc1c[nH]c2ccccc12)NC(=O)[C@H](CCCCN)NC(=O)[C@H](CCC(N)=O)NC(=O)[C@H](CCCNC(=N)N)NC(=O)[C@@H](N)CCCNC(=N)N)C(=O)N[C@@H](CC(C)C)C(=O)N[C@@H](C)C(=O)N[C@@H](CC(C)C)C(=O)N[C@@H](CC(N)=O)C(=O)N[C@H](C(=O)N[C@@H](Cc1c[nH]c2ccccc12)C(=O)N[C@@H](CCCCN)C(N)=O)[C@@H](C)CC [QLX-3DV-11] (H-RRQKWRILALNIWK-NH2) | 4 (≈ 2.13 µM) | 4 (≈ 2.13 µM) | 4 (≈ 2.13 µM) | 8 (≈ 4.25 µM) | 4 (≈ 2.13 µM) | 8 (≈ 4.25 µM) | 4 (≈ 2.13 µM) | 32 (≈ 17 µM) | 32 (≈ 17 µM) | 16 (≈ 8.51 µM) | 4 (≈ 2.13 µM) | 8 (≈ 4.25 µM) | 16 (≈ 8.51 µM) | 2 (≈ 1.06 µM)
CC(C)[C@H](N)C(=O)N[C@@H](CCCCN)C(=O)N[C@H](C(=O)N[C@@H](Cc1ccccc1)C(=O)N[C@@H](CCCNC(=N)N)C(=O)N[C@@H](Cc1ccccc1)C(=O)N[C@@H](Cc1ccc(O)cc1)C(=O)N[C@@H](Cc1c[nH]c2ccccc12)C(=O)N[C@@H](CCCCN)C(=O)N[C@@H](CCCNC(=N)N)C(=O)N[C@@H](CCCCN)C(=O)N[C@@H](CCC(N)=O)C(=O)N[C@@H](CCCNC(=N)N)C(=O)N[C@@H](Cc1ccccc1)C(N)=O)C(C)C [QLX-3DV-12] (H-VKVFRFYWKRKQRF-NH2) | 2 (≈ 1.01 µM) | 4 (≈ 2.01 µM) | 4 (≈ 2.01 µM) | 8 (≈ 4.03 µM) | 8 (≈ 4.03 µM) | 16 (≈ 8.05 µM) | 2 (≈ 1.01 µM) | 8 (≈ 4.03 µM) | 32 (≈ 16.1 µM) | 16 (≈ 8.05 µM) | 16 (≈ 8.05 µM) | 32 (≈ 16.1 µM) | 32 (≈ 16.1 µM) | 2 (≈ 1.01 µM)
CC(C)C[C@H](NC(=O)[C@H](CC(C)C)NC(=O)[C@H](Cc1ccccc1)NC(=O)[C@H](CCCNC(=N)N)NC(=O)[C@H](CCCNC(=N)N)NC(=O)[C@H](CCCNC(=N)N)NC(=O)[C@H](CC(C)C)NC(=O)[C@H](CC(C)C)NC(=O)[C@H](CCCNC(=N)N)NC(=O)[C@H](CCCNC(=N)N)NC(=O)[C@H](CCC(N)=O)NC(=O)[C@H](Cc1c[nH]c2ccccc12)NC(=O)[C@@H](NC(=O)[C@H](CC(C)C)NC(=O)[C@H](CCCNC(=N)N)NC(=O)[C@H](Cc1ccc(O)cc1)NC(=O)[C@@H](N)CCC(N)=O)C(C)C)C(=O)N[C@@H](CCCCN)C(=O)N[C@@H](C)C(N)=O [QLX-3DV-13] (H-QYRLVWQRRLLRRRFLLKA-NH2) | 2 (≈ 0.778 µM) | 4 (≈ 1.56 µM) | 8 (≈ 3.11 µM) | 16 (≈ 6.22 µM) | 4 (≈ 1.56 µM) | 64 (≈ 24.9 µM) | 2 (≈ 0.778 µM) | 32 (≈ 12.4 µM) | 16 (≈ 6.22 µM) | 16 (≈ 6.22 µM) | 16 (≈ 6.22 µM) | 64 (≈ 24.9 µM) | 32 (≈ 12.4 µM) | 4 (≈ 1.56 µM)
CC(C)C[C@H](NC(=O)[C@H](Cc1ccccc1)NC(=O)[C@H](CCCCN)NC(=O)[C@H](Cc1c[nH]c2ccccc12)NC(=O)[C@H](Cc1c[nH]c2ccccc12)NC(=O)[C@@H]1CCCN1C(=O)[C@H](CCCNC(=N)N)NC(=O)[C@@H](NC(=O)[C@H](Cc1ccccc1)NC(=O)[C@H](CCCCN)NC(=O)[C@H](CCCNC(=N)N)NC(=O)[C@H](Cc1c[nH]c2ccccc12)NC(=O)[C@H](CCCNC(=N)N)NC(=O)[C@H](CCCCN)NC(=O)[C@H](Cc1ccc(O)cc1)NC(=O)[C@H](CCC(N)=O)NC(=O)[C@@H](N)CCCNC(=N)N)C(C)C)C(=O)N[C@@H](CCCCN)C(=O)N[C@@H](CC(=O)O)C(N)=O [QLX-3DV-14] (H-RQYKRWRKFVRPWWKFLKD-NH2) | – | 8 (≈ 2.94 µM) | 8 (≈ 2.94 µM) | 16 (≈ 5.88 µM) | 4 (≈ 1.47 µM) | – | 4 (≈ 1.47 µM) | 32 (≈ 11.8 µM) | 128 (≈ 47 µM) | 8 (≈ 2.94 µM) | 16 (≈ 5.88 µM) | 8 (≈ 2.94 µM) | 32 (≈ 11.8 µM) | 8 (≈ 2.94 µM)
